In US20250092056A1, “URACIL DERIVATIVES HAVING VIRUS REPLICATION INHIBITORY ACTIVITY AND PHARMACEUTICAL COMPOSITION COMPRISING THE SAME” (Shionogi & Co., Ltd., priority 2022, published 2025):
Like-named read-outs stand apart in the source and are kept apart here.

Assays:
[1] = system: SARS-CoV-2; assay: Cytopathic effect (CPE) suppression effect confirmation test using HEK293T/ACE2-TMPRSS2 cells; assay type: cell-based; details: Severe acute respiratory syndrome coronavirus 2, HEK-293T
[2] = target: Recombinant SARS-CoV-2 3CL Protease (Severe acute respiratory syndrome coronavirus 2 (2019-nCoV) (SARS-CoV-2), UniProt P0DTD1); assay: biochemical; assay type: biochemical; details: 50% SARS-CoV-2 3CL protease inhibitory concentration; read-out: IC50
[3] = 72 h, read-out: EC50 (50% SARS-CoV-2 infected cell death inhibitory concentration), class, HEK293T/ACE2-TMPRSS2 cells, CPE suppression, CellTiter-Glo 2.0 after 3 days culture
[4] = 72 h, HEK293T/ACE2-TMPRSS2 cells, CPE suppression, CellTiter-Glo 2.0 after 3 days culture, read-out: EC50 (50% SARS-CoV-2 infected cell death inhibitory concentration), class
[5] = 72 h, read-out: EC50 (50% SARS-CoV-2 infected cell death inhibitory concentration), HEK293T/ACE2-TMPRSS2 cells, CPE suppression, CellTiter-Glo 2.0 after 3 days culture
[6] = 50% SARS-CoV-2 infected cell death inhibitory concentration, HEK293T/ACE2-TMPRSS2 cells, read-out: EC50

Cc1cncc(-n2c(=O)c(-c3ccc(F)c(Cl)c3)c(N3CC4(CCCO4)C3)n(CC#N)c2=O)n1 [Compound I-195]
EC50 [1, 3]: < 100 nM | IC50 [2]: < 10 nM

Cc1cncc(-n2c(=O)c(-c3ccc(F)c(Cl)c3)c(N3CC(C)(C)C3)n(CC#N)c2=O)n1 [Compound I-196]
EC50 [1, 3]: < 100 nM | IC50 [2]: < 10 nM

Cc1cncc(-n2c(=O)c(-c3ccc(F)c(Cl)c3)c(N3CCC(F)(F)CC3)n(CC#N)c2=O)n1 [Compound I-197]
EC50 [1, 3]: < 100 nM | IC50 [2]: < 10 nM

Cc1cncc(-n2c(=O)c(-c3ccc(F)c(Cl)c3)c(N3CC4(C3)CC(F)(F)C4)n(CC#N)c2=O)n1 [Compound I-198]
EC50 [1, 3]: < 100 nM | IC50 [2]: < 10 nM

Cc1cncc(-n2c(=O)c(-c3ccc(F)c(Cl)c3)c(N3CCC(C(F)(F)F)CC3)n(CC#N)c2=O)n1 [Compound I-199]
EC50 [1, 3]: < 100 nM | IC50 [2]: < 10 nM

Cc1cc(-n2c(=O)c(-c3cc(Cl)cc(C(F)(F)F)c3)c(N3CCC(C(F)(F)F)CC3)n(CC#N)c2=O)cc(=O)[nH]1 [Compound I-200]
EC50 [1, 4]: < 100 nM | IC50 [2]: 10 to 100 nM

Cc1cc(-n2c(=O)c(-c3cc(Cl)cc(C(F)(F)F)c3)c(N3CC4(C3)CC(F)(F)C4)n(CC#N)c2=O)cc(=O)[nH]1 [Compound I-201]
EC50 [1, 3]: 100 to 1000 nM | IC50 [2]: < 10 nM

COc1ccc(Oc2c(Cc3cc(F)c(F)c(F)c3)c(=O)n(-c3cncc(C)c3)c(=O)n2CC#N)cc1 [Compound I-202]
EC50 [1, 5]: 613 nM | IC50 [2]: 37 nM

Cc1cncc(-n2c(=O)c(Cc3cc(F)c(F)c(F)c3)c(N3CCCC3)n(CC#N)c2=O)c1 [Compound I-203]
EC50 [1, 4]: < 100 nM | IC50 [2]: 10 to 100 nM

Cc1cncc(-n2c(=O)c(Cc3cc(F)c(F)c(F)c3)c(N3Cc4cn[nH]c4C3)n(CC#N)c2=O)c1 [Compound I-204]
EC50 [1, 3]: < 100 nM | IC50 [2]: < 10 nM

Cc1cncc(-n2c(=O)c(Cc3cc(F)c(F)c(F)c3)c(N3Cc4ccccc4C3)n(CC#N)c2=O)c1 [Compound I-205]
EC50 [1, 5]: 5 nM | IC50 [2]: 0.76 nM

N#CCn1c(N2CC3(C2)CC(F)(F)C3)c(-c2ccc(F)c(Cl)c2)c(=O)n(-c2cncc(C#N)n2)c1=O [Compound I-206]
EC50 [1, 6]: < 100 nM | IC50 [2]: < 10 nM

N#CCn1c(N2CC3(C2)CC(F)(F)C3)c(-c2ccc(F)c(Cl)c2)c(=O)n(-c2cncc(C(F)(F)F)n2)c1=O [Compound I-207]
EC50 [1, 6]: < 100 nM | IC50 [2]: < 10 nM

N#CCn1c(N2CC3(C2)CC(F)(F)C3)c(-c2ccc(F)c(Cl)c2)c(=O)n(-c2cncc(C(F)F)n2)c1=O [Compound I-208]
EC50 [1, 5]: 7.04 nM | IC50 [2]: 1.8 nM

N#CCc1cncc(-n2c(=O)c(-c3ccc(F)c(Cl)c3)c(N3CC4(C3)CC(F)(F)C4)n(CC#N)c2=O)n1 [Compound I-209]
EC50 [1, 6]: < 100 nM | IC50 [2]: < 10 nM

N#CCn1c(N2CC3(C2)CC(F)(F)C3)c(-c2ccc(F)c(Cl)c2)c(=O)n(CC#N)c1=O [Compound I-210]
EC50 [1, 6]: 100 to 1000 nM | IC50 [2]: > 100 nM

Cc1cncc(-n2c(=O)c(-c3ccc(F)c(Cl)c3)c(C3=CCOCC3)n(CC#N)c2=O)c1 [Compound I-211]
EC50 [1, 6]: < 100 nM | IC50 [2]: < 10 nM

Cc1cncc(-n2c(=O)c(-c3ccc(F)c(Cl)c3)c(/C=C/c3ccc(C(F)(F)F)cc3)n(CC#N)c2=O)c1 [Compound I-212]
EC50 [1, 6]: 100 to 1000 nM | IC50 [2]: 10 to 100 nM

Cc1cncc(-n2c(=O)c(-c3cc(F)c(F)c(F)c3)c(CCC(C)(C)O)n(CC#N)c2=O)c1 [Compound I-213]
EC50 [1, 6]: < 100 nM | IC50 [2]: < 10 nM

N#CCn1c(N2CC3(C2)CC(F)(F)C3)c(-c2ccc(F)c(Cl)c2)c(=O)n(-c2cc(Cl)cnn2)c1=O [Compound I-214]
EC50 [1, 6]: < 100 nM | IC50 [2]: < 10 nM

COc1cnnc(-n2c(=O)c(-c3ccc(F)c(Cl)c3)c(N3CC4(C3)CC(F)(F)C4)n(CC#N)c2=O)c1 [Compound I-215]
EC50 [1, 6]: < 100 nM | IC50 [2]: < 10 nM

N#CCn1c(N2CC3(C2)CC(F)(F)C3)c(-c2ccc(F)c(Cl)c2)c(=O)n(-c2cc(C#N)cnn2)c1=O [Compound I-216]
EC50 [1, 6]: < 100 nM | IC50 [2]: < 10 nM

N#CCn1c(N2CC3(C2)CC(F)(F)C3)c(-c2ccc(F)c(Cl)c2)c(=O)n(-c2cc(OCC(F)F)cnn2)c1=O [Compound I-217]
EC50 [1, 6]: < 100 nM | IC50 [2]: < 10 nM

CNc1cnnc(-n2c(=O)c(-c3ccc(F)c(Cl)c3)c(N3CC4(C3)CC(F)(F)C4)n(CC#N)c2=O)c1 [Compound I-218]
EC50 [1, 6]: 1000 to 5000 nM | IC50 [2]: < 10 nM

CN(C)c1cnnc(-n2c(=O)c(-c3ccc(F)c(Cl)c3)c(N3CC4(C3)CC(F)(F)C4)n(CC#N)c2=O)c1 [Compound I-219]
EC50 [1, 6]: 100 to 1000 nM | IC50 [2]: 10 to 100 nM

Cc1cc(-n2c(=O)c(-c3ccc(F)c(Cl)c3)c(-c3ccc(C(F)F)cc3)n(CC#N)c2=O)cc(=O)[nH]1 [Compound I-220]
EC50 [1, 6]: 100 to 1000 nM | IC50 [2]: < 10 nM

Cc1cc(-n2c(=O)c(-c3ccc(F)c(Cl)c3)c(N3CC4(C3)CC(F)(F)C4)n(CC#N)c2=O)[nH]c(=O)c1 [Compound I-221]
EC50 [1, 6]: 1000 to 5000 nM | IC50 [2]: > 100 nM

CC(C)N1CCN(c2c(-c3ccc(F)c(Cl)c3)c(=O)n(-c3cncc(Cl)c3)c(=O)n2CC#N)CC1=O [Compound I-223]
EC50 [1, 6]: < 100 nM | IC50 [2]: < 10 nM

CCN1CCN(c2c(-c3ccc(F)c(Cl)c3)c(=O)n(-c3cncc(C)c3)c(=O)n2CC#N)CC1=O [Compound I-224]
EC50 [1, 6]: < 100 nM | IC50 [2]: < 10 nM

Cc1cncc(-n2c(=O)c(-c3ccc(F)c(Cl)c3)c(N3C[C@@H]4C[C@H]3CO4)n(CC#N)c2=O)c1 [Compound I-225]
EC50 [1, 6]: < 100 nM | IC50 [2]: < 10 nM

Cc1cncc(-n2c(=O)c(-c3ccc(F)c(Cl)c3)c(N3C[C@H]4C[C@@H]3CO4)n(CC#N)c2=O)c1 [Compound I-226]
EC50 [1, 6]: < 100 nM | IC50 [2]: < 10 nM

N#CCn1c(N2CC3(CCOC3)C2)c(C2=CCCCCC2)c(=O)n(-c2cncc(Cl)c2)c1=O [Compound I-227]
EC50 [1, 6]: < 100 nM | IC50 [2]: < 10 nM

Cc1cnnc(-n2c(=O)c(-c3ccc(F)c(Cl)c3)c(N3CC4(C3)CC(F)(F)C4)n(CC#N)c2=O)c1 [Compound I-228]
EC50 [1, 6]: < 100 nM | IC50 [2]: < 10 nM

N#CCn1c(N2CC3(C2)CC(F)(F)C3)c(-c2ccc(F)c(Cl)c2)c(=O)n(-c2cc(C(F)(F)F)cnn2)c1=O [Compound I-229]
EC50 [1, 6]: < 100 nM | IC50 [2]: < 10 nM

N#CCn1c(N2CC3(C2)CC(F)(F)C3)c(-c2ccc(F)c(Cl)c2)c(=O)n(-c2cncc(F)c2)c1=O [Compound I-231]
EC50 [1, 6]: < 100 nM | IC50 [2]: < 10 nM

N#CCn1c(N2CC(O)(c3ncccn3)C2)c(-c2ccc(F)c(Cl)c2)c(=O)n(-c2cncc(Cl)c2)c1=O [Compound I-232]
EC50 [1, 5]: 6.46 nM | IC50 [2]: 0.86 nM

N#CCn1c(N2CC(c3ncccn3)C2)c(-c2ccc(F)c(Cl)c2)c(=O)n(-c2cncc(Cl)c2)c1=O [Compound I-233]
EC50 [1, 6]: < 100 nM | IC50 [2]: < 10 nM

N#CCn1c(N2CC(O)(c3ncc(F)cn3)C2)c(-c2ccc(F)c(Cl)c2)c(=O)n(-c2cncc(Cl)c2)c1=O [Compound I-234]
EC50 [1, 5]: 6.6 nM | IC50 [2]: 1.2 nM

N#CCn1c(N2CC[C@H](C(=O)N3CC(F)(F)C3)C2)c(-c2ccc(F)c(Cl)c2)c(=O)n(-c2cncc(Cl)c2)c1=O [Compound I-235]
EC50 [1, 6]: < 100 nM | IC50 [2]: < 10 nM

N#CCn1c(N2CC[C@@H](C(=O)C3CC(F)(F)C3)C2)c(-c2ccc(F)c(Cl)c2)c(=O)n(-c2cncc(Cl)c2)c1=O [Compound I-236]
EC50 [1, 6]: < 100 nM | IC50 [2]: < 10 nM

N#CCn1c(N2CC(O)(c3cnccn3)C2)c(-c2ccc(F)c(Cl)c2)c(=O)n(-c2cncc(Cl)c2)c1=O [Compound I-237]
EC50 [1, 6]: < 100 nM | IC50 [2]: < 10 nM

N#CCn1c(N2CCCO2)c(-c2ccc(F)c(Cl)c2)c(=O)n(-c2cncc(Cl)c2)c1=O [Compound I-242]
EC50 [1, 6]: < 100 nM | IC50 [2]: 10 to 100 nM

N#CCn1c(N2CCOC2=O)c(-c2ccc(F)c(Cl)c2)c(=O)n(-c2cncc(Cl)c2)c1=O [Compound I-243]
EC50 [1, 6]: 100 to 1000 nM | IC50 [2]: > 100 nM

CN1CCN(c2c(-c3ccc(F)c(Cl)c3)c(=O)n(-c3cncc(Cl)c3)c(=O)n2CC#N)C1=O [Compound I-244]
EC50 [1, 6]: < 100 nM | IC50 [2]: 10 to 100 nM

N#CCn1c(OC2CC(F)(F)C2)c(-c2ccc(F)c(Cl)c2)c(=O)n(-c2cncc(Cl)c2)c1=O [Compound I-245]
EC50 [1, 6]: < 100 nM | IC50 [2]: 10 to 100 nM
